The nature of the data set: Human HepG2 cell viability assay in 384 well format. Particulars: HepG2 cells, read-out: Inhibition. Format: toxicity, cell-based. Also on record: dose 125 nL, time 70.5 hour; cytotoxicity at 70.5 h: concentration not given beside the values.
Turning to `CC(NCCCn1ccnc1)c1ccc(N2CCOC2=O)cc1` (stereo not given), the cytotoxicity at 70.5 h came out at 16.7%.

In the case of `CC(=O)NC1CCN(c2nc(N)nc3c2CCCC3)C1` (stereo not given), the cytotoxicity at 70.5 h was -8.84%.

`Cc1cc(C(=O)N(C)Cc2ccn[nH]2)c(NC(=O)C(C)(C)C)s1`: the cytotoxicity at 70.5 h was -9.88%.

Turning to `Cn1cc(C(=O)NCc2cncc3c2CCN(c2ccccn2)C3)cn1`, the cytotoxicity at 70.5 h stood at 17.4%.

As for `CC(C)Cc1cc(C(=O)NC(C)C)[nH]n1`, the cytotoxicity at 70.5 h was -4.46%.

With `Cc1cnc(NC(=O)C(C)Oc2ccc3c(c2)OCO3)s1` (stereo not given), the cytotoxicity at 70.5 h was -7.91%.

Take `Cc1cccc(N2CCCC3(C2)CN(S(=O)(=O)C2CC2)CCO3)c1` (stereo not given): the cytotoxicity at 70.5 h was -3.02%.

As for `CN1C(Cn2cccn2)C[C@@H]2CN(Cc3ccccn3)CC[C@@H]21` (stereo not given in full), the cytotoxicity at 70.5 h was -10.5%.

`CCCc1n[nH]c(C2CN(C(=O)c3ccc[nH]3)CCO2)n1` (stereo not given): the cytotoxicity at 70.5 h is -3.89%.

For the compound `CCOc1cc(CNc2cc(-c3nc(C)no3)ccn2)ccc1OC`, the cytotoxicity at 70.5 h is 1.28%.

Consider `CC(C)c1cc(C(=O)N(C)C(C)c2nccs2)no1` (stereo not given), for which the cytotoxicity at 70.5 h is -7.34%.

As for `CC(=O)c1ccc(C(=O)N2C[C@@H](CN3CCCC3)[C@@H](CO)C2)cc1`, the cytotoxicity at 70.5 h was 12.4%.

As for `Cc1nc(C2CCN(c3ccccc3)CC2)no1`, the cytotoxicity at 70.5 h is 8.78%.

`CCC(NC(=O)CNC(=O)OC)c1cc(F)ccc1F` (stereo not given): the cytotoxicity at 70.5 h was -2.42%.

As for `FC(F)CNc1cnc(C2CCNCC2)cn1`, the cytotoxicity at 70.5 h was -5.8%.

With `O=C(c1ccccc1)N1C[C@@H]2CC[C@H](C1)N(C(=O)CN1CCOCC1)C2`, the cytotoxicity at 70.5 h worked out at 3.79%.

In the case of `COC(=O)N1CCCN(Cn2nc(C)c(Br)c2C)CC1`, the cytotoxicity at 70.5 h worked out at 31.2%.

Take `CN1CCN(Cc2cn3c(n2)CNCC3)CC1`: the cytotoxicity at 70.5 h worked out at 23.1%.

Regarding `Cc1nccnc1N1C[C@H](NC(=O)CNS(C)(=O)=O)[C@@H](C2CC2)C1`, the cytotoxicity at 70.5 h is -3.36%.

With `O=C(CCC1CCN(C2Cc3ccccc3C2)CC1)NCC1CCCO1` (stereo not given), the cytotoxicity at 70.5 h was determined as 25.6%.

Consider `CCCc1nnc2sc(-c3cc(C(C)C)n[nH]3)nn12`, for which the cytotoxicity at 70.5 h came to 15.4%.

Consider `COc1ccc2c(c1)CN(C)C(=O)CCN2CC(O)C(F)(F)F` (stereo not given), for which the cytotoxicity at 70.5 h is 11.9%.

On to `COc1ccc(CN(Cc2cncn2C)CC2CCCO2)cc1OC` (stereo not given), for which the cytotoxicity at 70.5 h was -10.3%.

As for `CCc1nc(NC2CCN(CC(=O)NC3CC3)CC2)c2cnn(C)c2n1`, the cytotoxicity at 70.5 h turned out to be 14.5%.

Regarding `Cc1csc(NC(=O)CN2CCc3c(nc(C4CC4)n3C)C2)n1`, the cytotoxicity at 70.5 h is -1.68%.

As for `Cc1ccsc1CNc1ccccc1C(=O)N1CCNC(=O)C1`, the cytotoxicity at 70.5 h came to 16.9%.

Consider `CC(=O)N1CCCCC1c1cc(C(=O)N2CCOCC2)[nH]n1` (stereo not given), for which the cytotoxicity at 70.5 h was -7.33%.

In the case of `CC1(C)CN(Cc2nnc(-c3cccnc3)o2)CC[C@]1(C)O`, the cytotoxicity at 70.5 h was 8.67%.

Turning to `CCNc1cc2c(nn1)CCN(C(=O)c1ccc3c(c1)OCO3)C2`, the cytotoxicity at 70.5 h was -4.42%.

For the compound `O=C(NCCc1nnc2n1CCC2)NC1(c2cccc(F)c2)CC1`, the cytotoxicity at 70.5 h is 7.47%.

`O[C@@]1(CNCCCNc2cccnc2)CCCN2CCCC[C@@H]21`: the cytotoxicity at 70.5 h is -5.62%.

Regarding `CN(Cc1ccco1)C(=O)CN1CCCC1Cn1cncn1` (stereo not given), the cytotoxicity at 70.5 h came to 3.18%.

`Cc1nn(C)c(C)c1C1CCCN1Cc1nc2ccccc2o1` (stereo not given): the cytotoxicity at 70.5 h was -4.38%.

For `CC(=O)NC(C)C(=O)N(Cc1ccc(C)c(C)c1)C1CC1` (stereo not given), the cytotoxicity at 70.5 h was determined as 0.332%.

For the compound `COc1ccccc1C1CNCCN1C(C)=O` (stereo not given), the cytotoxicity at 70.5 h was -15.3%.

`Cc1sc2c(C3CCCN(C)C3)nc(C)n2c1C` (stereo not given): the cytotoxicity at 70.5 h turned out to be 24.3%.

With `O=C1NC2(CCN(C(=O)Cc3ccsc3)CC2)CC1c1ccncc1` (stereo not given), the cytotoxicity at 70.5 h was -4.21%.

Regarding `c1nc(NCc2cc3n(n2)CCN(C2CCCCC2)C3)c2nc[nH]c2n1`, the cytotoxicity at 70.5 h was -11.7%.

For the compound `CN(Cc1nnnn1C1CC1)CC1COc2ccccc2O1` (stereo not given), the cytotoxicity at 70.5 h was -0.558%.

As to `CCC(C)(N)c1nc(=O)c(C(C)C)c(C)[nH]1` (stereo not given), the cytotoxicity at 70.5 h was -5.63%.

On to `CS(=O)(=O)c1ccc2c(c1)N(C(=O)Cc1ccc(F)cc1)CCC2`, for which the cytotoxicity at 70.5 h worked out at 14.3%.

For `COCC(NC1CCSCC1)c1ccnn1C` (stereo not given), the cytotoxicity at 70.5 h came to 21.8%.

On to `CN(C)C(=O)N1CC[C@@H](O)[C@@H]1Cc1cnn(C)c1`, for which the cytotoxicity at 70.5 h is -1.6%.

In the case of `CC(=O)N1CCN(C(=O)Nc2ccccc2Cl)[C@H]2CS(=O)(=O)C[C@H]21`, the cytotoxicity at 70.5 h was -16%.

As to `COCCOCC(=O)Nc1ccc(C)cc1Br`, the cytotoxicity at 70.5 h was -3.99%.

For `CCCN(Cc1ccc(S(=O)(=O)NC)cc1)Cc1ccccc1OC`, the cytotoxicity at 70.5 h stood at 1.33%.

`CSc1nccc(N2C[C@@H]3CC[C@H](C2)N(CC2CCC2)C3=O)n1`: the cytotoxicity at 70.5 h amounted to 13%.

In the case of `CC(C)Cc1cc(C(=O)N2CCC(Cc3cnn(C)c3)C2)cc(O)n1` (stereo not given), the cytotoxicity at 70.5 h is -11.1%.

In the case of `CC(Cn1ccnc1)NCc1csc2c1CCCC2` (stereo not given), the cytotoxicity at 70.5 h was -0.368%.

With `CC(C)c1sc(Br)nc1C(=O)NCc1ccco1`, the cytotoxicity at 70.5 h is 32.2%.

For the compound `COc1ccc(N2Cc3n[nH]c(=O)n3C2=O)cc1`, the cytotoxicity at 70.5 h is -3.14%.

Consider `c1cnc(N2CCCC(c3csc(Nc4cnccn4)n3)C2)nc1` (stereo not given), for which the cytotoxicity at 70.5 h was found to be 19.8%.

Turning to `CC(Nc1ccc(C(F)(F)F)cc1C#N)c1cccc(S(N)(=O)=O)c1` (stereo not given), the cytotoxicity at 70.5 h is 9.79%.

Turning to `O=C(c1coc2ccccc12)N1CCS(=O)(=O)CC1`, the cytotoxicity at 70.5 h is -5.47%.

For the compound `CN(Cc1ccco1)Cc1cncc2c1CCN(c1ncccn1)C2`, the cytotoxicity at 70.5 h came out at 7.69%.

For `CCN1CCn2c(C)cnc2C12CCN(C(=O)NC)CC2`, the cytotoxicity at 70.5 h is -6.2%.

In the case of `CCc1cc(CNC(=O)NCc2ccc(N3CCCCC3)cc2)on1`, the cytotoxicity at 70.5 h is -7.79%.

With `CCc1ccccc1CNC(=O)CNCC(F)(F)F`, the cytotoxicity at 70.5 h was -2.89%.

With `Cc1[nH]ccc1C(=O)N1CCOCC12CCCC2`, the cytotoxicity at 70.5 h is -0.873%.

For the compound `CCc1ncc(CN2CCCN(CC3CC3)C(C(C)C)C2)cn1` (stereo not given), the cytotoxicity at 70.5 h was 9.86%.

Consider `Cc1nc(C)n(CC2CN(CCCc3ccccc3)CCO2)n1` (stereo not given), for which the cytotoxicity at 70.5 h is -4.71%.

Turning to `CCOc1ccc(C(F)(F)F)cc1NCc1cc(C)on1`, the cytotoxicity at 70.5 h was found to be 26.7%.

Consider `COc1ccc2c(c1)OCC(C(=O)NCc1nc3c(s1)CCCC3)C2` (stereo not given), for which the cytotoxicity at 70.5 h was -8.87%.

For `CC(=O)N1Cc2ccccc2OC2(CCN(C(=O)C3CC3)CC2)C1`, the cytotoxicity at 70.5 h came out at 25.4%.

Take `O=C(Cc1ccccn1)N1CCC(c2noc(-c3ccncc3)n2)CC1`: the cytotoxicity at 70.5 h was determined as 5.1%.

As for `Cn1c2ccc(F)cc2c2ncn(CCN3CCOCC3)c(=O)c21`, the cytotoxicity at 70.5 h was 17.4%.

With `CCOc1ncccc1C(=O)NCC(O)c1ccc(F)c(F)c1` (stereo not given), the cytotoxicity at 70.5 h was -6.21%.

In the case of `Cc1ccc(NCc2cnc3n2CCN(c2ncccn2)CC3)nn1`, the cytotoxicity at 70.5 h was -2.11%.

Regarding `Cc1nc(C(=O)N2CCCC(c3ccc4sc(N)nc4n3)C2)co1` (stereo not given), the cytotoxicity at 70.5 h is -7.73%.

As to `Cc1ccc(S(=O)(=O)NC(=O)c2cc(S(C)(=O)=O)ccc2C)s1`, the cytotoxicity at 70.5 h is -0.802%.

Turning to `CC(C)C[C@H](NC(=O)Cn1ccc2c(Cl)cccc21)C(=O)O`, the cytotoxicity at 70.5 h was -15.2%.

Turning to `O=C(CN1CCC(c2cc(=O)n3c(n2)CCCCC3)CC1)N1CCCC1`, the cytotoxicity at 70.5 h was 1.49%.

Take `CNc1nc(CNC(=O)Nc2cc(Cl)ccc2F)cs1`: the cytotoxicity at 70.5 h is -2.3%.

Regarding `CC(C)(C)Oc1ccncc1NCc1cscn1`, the cytotoxicity at 70.5 h was -3.05%.

`CC(CNC(=O)Nc1cn[nH]c1)N1CCc2ccccc2C1` (stereo not given): the cytotoxicity at 70.5 h was -7.18%.

Turning to `O=C(N[C@@H]1CCNC[C@H]1O)c1ccccc1OC(F)(F)C(F)F`, the cytotoxicity at 70.5 h is 0.818%.

In the case of `Cc1cc(C)nc(N2CCc3ccc(OC(F)F)cc3C2)n1`, the cytotoxicity at 70.5 h is -2.64%.

For `N#CC1(NC(=O)c2nccc3ccccc23)CCC1`, the cytotoxicity at 70.5 h was -8.96%.

On to `O=C(c1ccccn1)N1CCC(S(=O)(=O)c2ccccc2)C1` (stereo not given), for which the cytotoxicity at 70.5 h is -9.33%.

`Cc1cn2c(n1)C(CNCc1cnn3ccccc13)CCC2` (stereo not given): the cytotoxicity at 70.5 h was -5.6%.

`Cn1cc(C2CCCN2C(=O)CCn2c(=O)oc3ccccc32)cn1` (stereo not given): the cytotoxicity at 70.5 h is -2.42%.

For `CS(=O)(=O)CCn1ccc(NC(=O)Cc2c[nH]c3ccccc23)n1`, the cytotoxicity at 70.5 h amounted to 5.18%.

Take `CN1CCN(c2nsc(-c3ccccc3)c2C#N)CC1`: the cytotoxicity at 70.5 h is -2.35%.

Regarding `COc1cccc(S(=O)(=O)Cc2noc(CC(C)C)n2)c1`, the cytotoxicity at 70.5 h was -4.78%.

With `Cc1cnn(C2CCCN(C(=O)Cn3ccc(=O)n(C)c3=O)C2)c1` (stereo not given), the cytotoxicity at 70.5 h was -1.04%.

Consider `CS(=O)(=O)N1CCCC(c2cccc(-c3ccccc3F)n2)C1` (stereo not given), for which the cytotoxicity at 70.5 h was -7.63%.

As for `O=C(c1ccon1)N1CCc2ncnc(NCc3ccccn3)c2CC1`, the cytotoxicity at 70.5 h was determined as 0.424%.

For the compound `CCN(CC)C(=O)Cc1csc(C(C)C)n1`, the cytotoxicity at 70.5 h came out at 14%.

Turning to `CC(C)CN1CC[C@@H]2[C@@H]1CCN2C(=O)N1CCCC1`, the cytotoxicity at 70.5 h is -3.86%.

With `O=C(c1ccccc1F)N1CCCn2c(CN3CCCCC3)nnc2C1`, the cytotoxicity at 70.5 h was -6.86%.

With `CN(C)C(=O)CS(=O)(=O)Cc1cc(Cl)c2c(c1)OCCO2`, the cytotoxicity at 70.5 h is 3.21%.

For the compound `CCc1nnc(Nc2cc(C)nc(C3CN(C(=O)C(C)C)CCO3)c2)s1` (stereo not given), the cytotoxicity at 70.5 h was 9.87%.

Regarding `Cc1nc2n(n1)CC(NCc1nc3ccccc3o1)CC2` (stereo not given), the cytotoxicity at 70.5 h is 1.97%.

Consider `CCn1cc(CNC(=O)CCn2ncc3c(Cl)cccc32)cn1`, for which the cytotoxicity at 70.5 h worked out at 17.5%.

For `COCCC(=O)N1CCn2cc(CN3CCN(C)CC3)nc2C1`, the cytotoxicity at 70.5 h was determined as 0.542%.

As to `CN(CC1COc2ccccc2O1)C(=O)C1=NN(C)C(=O)CC1` (stereo not given), the cytotoxicity at 70.5 h turned out to be 8.57%.

Regarding `CC(C)N1CCCC(C(=O)N(C)CCCc2cnn(C)c2)C1` (stereo not given), the cytotoxicity at 70.5 h is -2.41%.

Take `Cc1ccc(N2C[C@H]3OCC[C@H]3[C@H](C(=O)NC3CCCC3)C2)nn1`: the cytotoxicity at 70.5 h is -12.6%.

Turning to `Cc1n[nH]c(C)c1C1CCCN1C(=O)NCC(=O)Nc1ccccc1` (stereo not given), the cytotoxicity at 70.5 h amounted to 6.46%.

In the case of `CNC(=O)[C@@H]1COC[C@H]2CN(C(=O)COc3ccccc3)C[C@H]21`, the cytotoxicity at 70.5 h is -1.14%.

The values above are taken from ChEMBL document CHEMBL3507680, “University of Dundee, Gates Library screen for HepG2 cell viability”.
